The record followed here is patent publication US12594293B2, “Use of 6-thio-dG to treat therapy-resistant telomerasepositive pediatric brain tumors” (The Board of Regents of The University of Texas System, priority 2018, dated 2026).

As a reminder, the IC50 is the point on the concentration scale where inhibition reaches its midpoint.

Test [1] deals with HFF cells. Put plainly: Cell cycle analysis (PI flow cytometry). It counts as cell-based, human. The note with it: 3 μM, three days. How it is done: (§1) Cell cycle analysis. Following treatment with 6-thio-dG or DMSO, cells were collected in PBS, fixed with ice-cold 70% ethanol and were kept in −20° C. for at least an hour. Cells were then washed and stained with propidium iodide (PI) solution containing 25 μg/mL PI (Sigma), and 100 μg/mL Ribonuclease-A (Sigma) for 30 minutes in the dark. Flow cytometry was performed on BD FACS Canto II and cells were analyzed using FlowJo v.10 (FlowJo, USA) software.

Test [2] has as its system HFF+hTERT cells. The experiment in a line: Cell cycle analysis (PI flow cytometry). In kind it is cell-based, human. How it is done: as §1
For orientation: Flow cytometry measures light scatter and fluorescence of single cells or particles in a stream.

The test system of test [3] is HFF cells. Put plainly: Senescence-associated β-galactosidase assay. It counts as cell-based, human. The following applies: 3 μM for 23 days. An excerpt: (§2) Senescence assay. Senescence-associated β-galactosidase was detected as previously described (2). Cells were observed under the microscope until the development of the blue color and the reaction was terminated. Images were captured; stained and unstained cells were counted from multiple fields to quantitate the percent senescent cells.

Test [4] relates to HFF+hTERT cells. Put plainly: Senescence-associated β-galactosidase assay. The note with it: 3 μM for 23 days. It counts as cell-based, human.
Source text: as §2

In the next test the test system is CCHMC-DIPG-1. Put plainly: Cell growth assay (viable cell count, trypan blue exclusion). In kind it is cell-based. The following applies: Homo sapiens, 168 h, 6-thio-dG treatment for 7 days. As for the experimental part:
(§3) Cell growth and sphere formation assay. After dissociating primary neurospheres by TrypLE express (Gibco), single cells were seeded in respective growth media in 6-well plates and were incubated for one week at varying concentrations (0.5 to 10 μM) of 6-thio-dG or DMSO. Fresh culture media were added every three days. Viable cell numbers were determined by trypan blue exclusion method. For sphere formation assay, MB004 single cells were seeded in limited dilution (10 cells/well in 96-well plate) and treated with DMSO or 6-thio-dG. Sphere formation was monitored by microscopy.

For a further test, the system named is HeLa. The description is as above. In kind it is cell-based. The note with it: Homo sapiens, 168 h, 6-thio-dG treatment for 7 days. As for the experimental part:
as §3

For a further test, the system named is R0315-GBM. The description is as above. The note with it: Homo sapiens, 168 h, 6-thio-dG treatment for 7 days. It counts as cell-based. As for the experimental part:
as §3

Another test has as its system SU-DIPG-VI. The description is as above. It counts as cell-based. The note with it: Homo sapiens, 168 h, 6-thio-dG treatment for 7 days. How it is done: as §3
For the next test, the system named is HFF + hTERT. The test is described as above. In kind it is cell-based, human. The following applies: Homo sapiens, 168 h; 6-thio-dG treatment for 7 days; HFF + hTERT.
Test [5] has as its system ATM and ATR signaling pathways in HFF+hTERT cells. The experiment in a line: Western blot of ATR-T1989 and ATM-S1981 phosphorylation. In kind it is cell-based, human. The note with it: 3 μM, day 1 to 3. How it is done: (§4) Western blot. Western blot was performed as described previously (22). Antibodies used were against ATMS1981P (R & D Systems); ATM (SIGMA); ATR-T1989P (GeneTex); and ATR, CHK1-S345P, CHK1, CHK2-T68P, CHK2, Cleaved Caspase-3, and β-actin (Cell Signaling). Bands were visualized using ECL with Azurec500 imaging system (Azure Biosystems). Band intensities were quantified using ImageJ software (Ver. 1.49u, NIH, USA).

Test [6] deals with ATM and ATR signaling pathways in HFF cells. Described as above. It counts as cell-based, human. The following applies: 3 μM, day 1 to 3. How it is done:
as §4

In a further test the test system is MB004 cells. The experiment in a line: Apoptosis, cleaved caspase-3. It counts as cell-based, human. The note with it: 3 μM for 4 or 7 days; data not shown. How it is done:
(§5) Immunofluorescence and telomere FISH assay. Cells were fixed with 4% paraformaldehyde (PFA) for 15 minutes. Cells were then washed, permeabilized with 0.5% Triton-X-100 in PBS, blocked with 5% donkey serum and 0.3% Triton X-100 in TBS and incubated with primary antibodies against γH2A.X (1:500, rabbit), or cleaved caspase-3 (1:400, rabbit) (Cell Signaling); and/or TRF2 (1:200) (Mouse; NOVUS), as applicable, for overnight followed by TBST wash (×3) next day. Corresponding secondary antibodies were added (Alexa-Fluor 488- or 594-conjugated donkey anti-rabbit, or anti-mouse (1:500) (Jackson ImmunoResearch) for 1 hour and washed with TBS (×3) before mounting. For telomere-FISH, fixed and permeabilized cells were dehydrated with a graded ethanol concentration series, air-dried and covered with hybridization solution (70% formamide, 0.5% Blocking Reagent (Roche Diagnostics) diluted in 100 mM maleic acid and 150 mM sodium chloride, and 10 mM Tris (pH 7.5)) with 300 ng/mL PNA(CCCTAA)3-Cy3 (SEQ ID NO: 1) (Biosynthesis, USA), and denatured for 6 minutes at 84° C. followed by hybridization for at least two hours at room temperature. Cells were washed three times with 70% formamide and 10 mM Tris (pH 7.5) and three times with TBS. […]
(§6) Western blot. […] Band intensities were quantified using ImageJ software (Ver. 1.49u, NIH, USA).

The next test relates to CCHMC-DIPG-1 cells. The experiment in a line: Apoptosis, cleaved caspase-3. It counts as cell-based, human. The following applies: 3 μM for 4 or 7 days; data not shown. How it is done:
as §5, §6

Turning to `Nc1nc2c(ncn2[C@H]2C[C@H](O)[C@@H](CO)O2)c(=S)[nH]1` [6-thio-dG, 6-thio-2′-deoxyguanosine], the G2/M arrest effect result in the test with HFF cells [1] is on record as “negligible”. Also, the “cell cycle profile after drug removal” value in the test on HFF+hTERT cells [2] (3 μM 3 days, then drug removed) was “partially reverted to that of the vehicle control”. Further, the cell cycle progression entry in the test on HFF+hTERT cells [2] (3 μM, three days) is “caused G2/M arrest”. Also, the “cells SA-β-gal-positive” value in the test on HFF cells [3] is on record as 7%. Also, the “cells with senescence phenotype (SA-β-gal-positive)” value in the test with HFF+hTERT cells [4] is listed as 30%. In addition, the IC50 in the test with CCHMC-DIPG-1 amounted to 655 nM; in the test with HeLa it was 143 nM; in the test on R0315-GBM it was 1250 nM; in the test on SU-DIPG-VI it was 772 nM; in the test with HFF + hTERT, 179 nM. In [5], the “ATR-T1989 and ATM-S1981 phosphorylation” value was “Both ATM and ATR signaling pathways were engaged”. Further, the “ATR / ATM pathway activation” value in [6] is given as “activation of the ATR pathway”. Also, the “cleaved caspase-3 signal (apoptosis)” value in the test on MB004 cells and in the test with CCHMC-DIPG-1 cells was “increase in cleaved caspase-3 signal” throughout.
